Test results: ChEMBL document CHEMBL1125940 (Bioorg Med Chem Lett, 1991)
Positions of bridges follow the written chain, without caps; N, C: chain ends. Residues, ends and D or L forms follow the SMILES beside them.

Organism: Oryctolagus cuniculus
Assay: Percent of endothelin-1 induced contraction of carotid arteries isolated from New Zealand white rabbits, tested at 1 uM concentration of compound
Format: functional

Row | SMILES | Contraction [%]
1 | CC[C@H](C)[C@H](NC(=O)[C@H](CC(=O)O)NC(=O)[C@H](CC(C)C)NC(=O)[C@H](Cc1c[nH]cn1)NC(=O)[C@@H]1CSSC[C@H](N)C(=O)N[C@@H](CO)C(=O)N[C@H]2CSSC[C@H](NC(=O)[C@H](CCC(=O)O)NC(=O)[C@H](CCCCN)NC(=O)[C@H](CC(=O)O)NC(=O)[C@H](CCSC)NC(=O)[C@H](CC(C)C)NC(=O)[C@H](CO)NC(=O)[C@H](CO)NC2=O)C(=O)N[C@@H](C(C)C)C(=O)N[C@@H](Cc2ccc(O)cc2)C(=O)N[C@@H](C)C(=O)N1)C(=O)N[C@H](C(=O)N[C@@H](Cc1c[nH]c2ccccc12)C(=O)O)[C@@H](C)CC (H-CSCSSLMDKECVYACHLDIIW-OH; disulfide 1-15, 3-11) | 6
2 | CC[C@H](C)[C@H](NC(=O)[C@H](CC(=O)O)NC(=O)[C@H](CC(C)C)NC(=O)[C@H](Cc1c[nH]cn1)NC(=O)[C@@H]1CSSC[C@H](N)C(=O)N[C@@H](CO)C(=O)N[C@H]2CSSC[C@H](NC(=O)[C@H](CCC(=O)O)NC(=O)[C@H](CCCCN)NC(=O)[C@H](CC(=O)O)NC(=O)[C@H](CCSC)NC(=O)[C@H](CC(C)C)NC(=O)[C@H](CO)NC(=O)[C@H](CO)NC2=O)C(=O)N[C@@H](C(C)C)C(=O)N[C@@H](Cc2ccc(O)cc2)C(=O)N[C@@H](Cc2ccccc2)C(=O)N1)C(=O)N[C@@H](C)C(=O)N[C@@H](Cc1c[nH]c2ccccc12)C(=O)O (H-CSCSSLMDKECVYFCHLDIAW-OH; disulfide 1-15, 3-11) | 37
3 | CC[C@H](C)[C@H](NC(=O)[C@H](CC(=O)O)NC(=O)[C@H](CC(C)C)NC(=O)[C@H](Cc1c[nH]cn1)NC(=O)[C@@H]1CSSC[C@H](N)C(=O)N[C@@H](CO)C(=O)N[C@H]2CSSC[C@H](NC(=O)[C@H](C)NC(=O)[C@H](CCCCN)NC(=O)[C@H](CC(=O)O)NC(=O)[C@H](CCSC)NC(=O)[C@H](CC(C)C)NC(=O)[C@H](CO)NC(=O)[C@H](CO)NC2=O)C(=O)N[C@@H](C(C)C)C(=O)N[C@@H](Cc2ccc(O)cc2)C(=O)N[C@@H](Cc2ccccc2)C(=O)N1)C(=O)N[C@H](C(=O)N[C@@H](Cc1c[nH]c2ccccc12)C(=O)O)[C@@H](C)CC (H-CSCSSLMDKACVYFCHLDIIW-OH; disulfide 1-15, 3-11) | 7
4 | CC[C@H](C)[C@H](NC(=O)[C@H](C)NC(=O)[C@H](CC(C)C)NC(=O)[C@H](Cc1c[nH]cn1)NC(=O)[C@@H]1CSSC[C@H](N)C(=O)N[C@@H](CO)C(=O)N[C@H]2CSSC[C@H](NC(=O)[C@H](CCC(=O)O)NC(=O)[C@H](CCCCN)NC(=O)[C@H](CC(=O)O)NC(=O)[C@H](CCSC)NC(=O)[C@H](CC(C)C)NC(=O)[C@H](CO)NC(=O)[C@H](CO)NC2=O)C(=O)N[C@@H](C(C)C)C(=O)N[C@@H](Cc2ccc(O)cc2)C(=O)N[C@@H](Cc2ccccc2)C(=O)N1)C(=O)N[C@H](C(=O)N[C@@H](Cc1c[nH]c2ccccc12)C(=O)O)[C@@H](C)CC (H-CSCSSLMDKECVYFCHLAIIW-OH; disulfide 1-15, 3-11) | 0
5 | CC[C@H](C)[C@H](NC(=O)[C@H](CC(=O)O)NC(=O)[C@H](CC(C)C)NC(=O)[C@H](Cc1c[nH]cn1)NC(=O)[C@@H]1CSSC[C@H](N)C(=O)N[C@@H](CO)C(=O)N[C@H]2CSSC[C@H](NC(=O)[C@H](CCC(=O)O)NC(=O)[C@H](CCCCN)NC(=O)[C@H](C)NC(=O)[C@H](CCSC)NC(=O)[C@H](CC(C)C)NC(=O)[C@H](CO)NC(=O)[C@H](CO)NC2=O)C(=O)N[C@@H](C(C)C)C(=O)N[C@@H](Cc2ccc(O)cc2)C(=O)N[C@@H](Cc2ccccc2)C(=O)N1)C(=O)N[C@H](C(=O)N[C@@H](Cc1c[nH]c2ccccc12)C(=O)O)[C@@H](C)CC (H-CSCSSLMAKECVYFCHLDIIW-OH; disulfide 1-15, 3-11) | 60
